pEC50: −log10 of the molar value.
Biological target: T1, G-protein coupled bile acid receptor 1 (Homo sapiens, UniProt Q8TDU6)
T1 sequence (Q8TDU6 whole entry): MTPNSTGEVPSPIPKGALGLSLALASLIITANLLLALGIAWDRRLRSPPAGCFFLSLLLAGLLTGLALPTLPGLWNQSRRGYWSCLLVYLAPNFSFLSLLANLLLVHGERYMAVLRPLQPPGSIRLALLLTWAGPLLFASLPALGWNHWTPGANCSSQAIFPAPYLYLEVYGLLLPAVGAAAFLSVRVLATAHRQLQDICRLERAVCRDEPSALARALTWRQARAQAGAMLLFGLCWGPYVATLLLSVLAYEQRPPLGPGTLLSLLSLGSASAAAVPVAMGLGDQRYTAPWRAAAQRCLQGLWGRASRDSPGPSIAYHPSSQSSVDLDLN
Assay: Positive allosteric modulator activity at human TGR5 expressed in HEK293T cells assessed as increase in cAMP accumulation incubated for 1 hr at 37 degC and further incubated for 1 hr at room temperature by glosensor cAMP accumulation assay
Assay type: functional, cell-based

SMILES | pEC50
CO[C@@H]1C[C@@H]2C[C@H](O)CC[C@]2(C)[C@H]2C[C@H](O)[C@]3(C)[C@@H]([C@H](C)CCC(=O)Oc4ccccc4)CC[C@H]3[C@H]12 | 4.73
CO[C@@H]1C[C@@H]2C[C@H](O)CC[C@]2(C)[C@H]2C[C@H](O)[C@]3(C)[C@@H]([C@H](C)CCC(=O)Oc4cccc5ccccc45)CC[C@H]3[C@H]12 | 4.31
CO[C@@H]1C[C@@H]2C[C@H](O)CC[C@]2(C)[C@H]2CC(=O)[C@]3(C)[C@@H]([C@H](C)CCC(=O)Oc4cccc5ccccc45)CC[C@H]3[C@H]12 | 4.42
CO[C@@H]1C[C@@H]2C[C@H](O)CC[C@]2(C)[C@H]2CC(=O)[C@]3(C)[C@@H]([C@H](C)CCC(=O)Oc4ccc5ccccc5c4)CC[C@H]3[C@H]12 | < 4.00
COC(=O)CC[C@@H](C)[C@H]1CC[C@H]2[C@@H]3[C@H](OC)C[C@@H]4C[C@H](O)CC[C@]4(C)[C@H]3C[C@H](O)[C@]12C | 5.10
CO[C@@H]1C[C@@H]2C[C@H](O)CC[C@]2(C)[C@H]2C[C@H](O)[C@]3(C)[C@@H]([C@H](C)CCC(=O)Oc4ccc5ccccc5c4)CC[C@H]3[C@H]12 | < 4.00
CO[C@@H]1C[C@@H]2C[C@H](O)CC[C@]2(C)[C@H]2C[C@H](O)[C@]3(C)[C@@H]([C@H](C)CCC(=O)OCC4CCCC4)CC[C@H]3[C@H]12 | 4.59
CCOC(=O)CC[C@@H](C)[C@H]1CC[C@H]2[C@@H]3[C@H](OC)C[C@@H]4C[C@H](O)CC[C@]4(C)[C@H]3C[C@H](O)[C@]12C | 4.70
CO[C@@H]1C[C@@H]2C[C@H](O)CC[C@]2(C)[C@H]2C[C@H](O)[C@]3(C)[C@@H]([C@H](C)CCC(=O)OCc4ccccc4)CC[C@H]3[C@H]12 | 4.03
CO[C@@H]1C[C@@H]2C[C@H](O)CC[C@]2(C)[C@H]2C[C@H](O)[C@]3(C)[C@@H]([C@H](C)CCC(=O)OC(C)C)CC[C@H]3[C@H]12 | 5.01
CO[C@@H]1C[C@@H]2C[C@H](O)CC[C@]2(C)[C@H]2C[C@H](O)[C@]3(C)[C@@H]([C@H](C)CCC(=O)OCC4CC4)CC[C@H]3[C@H]12 | 4.85
CO[C@@H]1C[C@@H]2C[C@H](O)CC[C@]2(C)[C@H]2CC(=O)[C@]3(C)[C@@H]([C@H](C)CCC(=O)OCc4ccccc4)CC[C@H]3[C@H]12 | 4.12

Second part, the molecule after the results:

pEC50 | SMILES
5.26 | CO[C@@H]1C[C@@H]2C[C@H](O)CC[C@]2(C)[C@H]2CC(=O)[C@]3(C)[C@@H]([C@H](C)CCC(=O)Oc4ccccc4)CC[C@H]3[C@H]12
5.20 | CO[C@@H]1C[C@@H]2C[C@H](O)CC[C@]2(C)[C@H]2CC(=O)[C@]3(C)[C@@H]([C@H](C)CCC(=O)OC4CC4)CC[C@H]3[C@H]12
4.21 | CO[C@@H]1C[C@@H]2C[C@H](O)CC[C@]2(C)[C@H]2CC(=O)[C@]3(C)[C@@H]([C@H](C)CCC(=O)OCC4CCCC4)CC[C@H]3[C@H]12
5.02 | CO[C@@H]1C[C@@H]2C[C@H](O)CC[C@]2(C)[C@H]2CC(=O)[C@]3(C)[C@@H]([C@H](C)CCC(=O)OCC4CC4)CC[C@H]3[C@H]12
5.28 | COC(=O)CC[C@@H](C)[C@H]1CC[C@H]2[C@@H]3[C@H](OC)C[C@@H]4C[C@H](O)CC[C@]4(C)[C@H]3CC(=O)[C@]12C
4.66 | CO[C@@H]1C[C@@H]2C[C@H](O)CC[C@]2(C)[C@H]2C[C@H](O)[C@]3(C)[C@@H]([C@H](C)CCC(=O)OC4CCCC4)CC[C@H]3[C@H]12
4.50 | CCOC(=O)CC[C@@H](C)[C@H]1CC[C@H]2[C@@H]3[C@H](OC)C[C@@H]4C[C@H](O)CC[C@]4(C)[C@H]3CC(=O)[C@]12C
4.92 | CO[C@@H]1C[C@@H]2C[C@H](O)CC[C@]2(C)[C@H]2CC(=O)[C@]3(C)[C@@H]([C@H](C)CCC(=O)OC(C)C)CC[C@H]3[C@H]12
5.05 | CO[C@@H]1C[C@@H]2C[C@H](O)CC[C@]2(C)[C@H]2C[C@H](O)[C@]3(C)[C@@H]([C@H](C)CCC(=O)OC4CC4)CC[C@H]3[C@H]12
4.64 | CO[C@@H]1C[C@@H]2C[C@H](O)CC[C@]2(C)[C@H]2CC(=O)[C@]3(C)[C@@H]([C@H](C)CCC(=O)OC4CCCC4)CC[C@H]3[C@H]12

Reference: ChEMBL document CHEMBL5370567 (Bioorg Med Chem, 2023)
